Data taken from ChEMBL document CHEMBL1201862, “PubChem BioAssay data set” (2004).
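Step 1: Grow cells in 96-well plates. Step 2: Expose to compound for 48 hours at 5 concentrations. Step 3: Interpolate endpoints linearly; if unreached, use highest concentration. Abbreviation: GI50, concentration required for 50% inhibition of growth.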 Active and inactive are the calls of the source. Rule as the data show it: active = GI50 up to about 1.1 µM and inactive = higher.

Experiments:
Assay in all cases: growth of human tumour cells (NCI), 48 h
OVCAR-8 = system: OVCAR-8
T47D = system: T47D
CCRF-CEM = system: CCRF-CEM
MCF7 = system: MCF7
SF-295 = system: SF-295
RXF 393 = system: RXF 393
ACHN = system: ACHN
COLO 205 = system: COLO 205
U-251 = system: U-251
NCI-H460 = system: NCI-H460
OVCAR-5 = system: OVCAR-5
PC-3 = system: PC-3
K562 = system: K562
MDA-MB-231 = system: MDA-MB-231
LOX IMVI = system: LOX IMVI
SF-539 = system: SF-539
SNB-19 = system: SNB-19
HCT-15 = system: HCT-15
Hs-578T = system: Hs-578T
786-0 = system: 786-0
DU-145 = system: DU-145
A498 = system: A498
KM12 = system: KM12
NCI-H23 = system: NCI-H23
TK-10 = system: TK-10
EKVX = system: EKVX
A549 = system: A549
SF-268 = system: SF-268
SK-OV-3 = system: SK-OV-3
SR = system: SR
IGROV-1 = system: IGROV-1
CAKI-1 = system: CAKI-1
UO-31 = system: UO-31
UACC-62 = system: UACC-62
HT-29 = system: HT-29
SNB-75 = system: SNB-75
UACC-257 = system: UACC-257
SK-MEL-2 = system: SK-MEL-2
MDA-MB-435 = system: MDA-MB-435
M14 = system: M14
BT-549 = system: BT-549
SK-MEL-5 = system: SK-MEL-5
HOP-92 = system: HOP-92
SN12C = system: SN12C
HL-60 = system: HL-60
HCC 2998 = system: HCC 2998
OVCAR-4 = system: OVCAR-4
Malme-3M = system: Malme-3M
NCI/ADR-RES = system: NCI/ADR-RES
HOP-62 = system: HOP-62
MOLT-4 = system: MOLT-4
MDA-N = system: MDA-N
OVCAR-3 = system: OVCAR-3
SK-MEL-28 = system: SK-MEL-28
NCI-H522 = system: NCI-H522
SW-620 = system: SW-620
NCI-H226 = system: NCI-H226
HCT-116 = system: HCT-116
RPMI-8226 = system: RPMI-8226

Measured: GI50

CC[C@]12C=CCN3CC[C@@]4(c5cc(N=O)c(OC)cc5N(C)[C@H]4[C@@](O)(C(=O)NC(Cc4c[nH]c5ccccc45)C(=O)OC)[C@@H]1O)[C@@H]32 (stereo partly specified)
inactive: OVCAR-8 17.5 µM | T47D 6.93 µM | CCRF-CEM 3.27 µM | MCF7 15.3 µM | SF-295 17.1 µM | RXF 393 12.6 µM | ACHN 18.9 µM | COLO 205 15.4 µM | U-251 7.33 µM | NCI-H460 19.1 µM | OVCAR-5 19.5 µM | PC-3 11.5 µM | K562 3.92 µM | MDA-MB-231 18.3 µM | LOX IMVI 16.7 µM | SF-539 16.6 µM | SNB-19 19.9 µM | Hs-578T 22.4 µM | 786-0 30 µM | DU-145 17.2 µM | A498 32.4 µM | KM12 12.5 µM | NCI-H23 17.7 µM | TK-10 17.9 µM | EKVX 20.9 µM | A549 29.4 µM | SF-268 24.2 µM | SK-OV-3 20.2 µM | SR 1.22 µM | IGROV-1 17.7 µM | CAKI-1 17.9 µM | UO-31 23.1 µM | UACC-62 16 µM | HT-29 14.1 µM | SNB-75 15 µM | UACC-257 15.1 µM | SK-MEL-2 15.3 µM | MDA-MB-435 17.1 µM | M14 19 µM | BT-549 14.9 µM | SK-MEL-5 14.8 µM | HOP-92 12.3 µM | SN12C 26.4 µM | HL-60 2.87 µM | HCC 2998 15.6 µM | OVCAR-4 15.6 µM | Malme-3M 18.6 µM | NCI/ADR-RES > 100 µM | HOP-62 18.2 µM | MOLT-4 1.46 µM | MDA-N 20.3 µM | OVCAR-3 14.4 µM | SK-MEL-28 31.3 µM | NCI-H522 2.64 µM | SW-620 6.93 µM | NCI-H226 24.5 µM | HCT-116 12.9 µM
20.3 µM: HCT-15

O=S(=O)(O)/C(=N\c1cccc(Cc2ccccc2)c1)Nc1cccc(Cc2ccccc2)c1
17.6 µM: HCT-15
inactive: OVCAR-8 18.5 µM | T47D 15.8 µM | CCRF-CEM 27.2 µM | MCF7 19.2 µM | SF-295 18.2 µM | RXF 393 16.4 µM | ACHN 17.4 µM | COLO 205 18.3 µM | U-251 19.6 µM | OVCAR-5 18.1 µM | PC-3 18.3 µM | K562 31.4 µM | MDA-MB-231 17.8 µM | LOX IMVI 12.9 µM | SF-539 16.3 µM | SNB-19 21.2 µM | Hs-578T 19.1 µM | 786-0 15.2 µM | DU-145 17 µM | A498 22.4 µM | KM12 17.3 µM | NCI-H23 16.4 µM | TK-10 19.8 µM | EKVX 16.7 µM | A549 22.4 µM | SF-268 17.7 µM | SK-OV-3 21 µM | SR 21.9 µM | IGROV-1 16.6 µM | CAKI-1 42.5 µM | UO-31 15.8 µM | UACC-62 16.5 µM | HT-29 18 µM | SNB-75 16.1 µM | UACC-257 24.2 µM | SK-MEL-2 21.6 µM | MDA-MB-435 20.1 µM | M14 16.4 µM | BT-549 17.7 µM | SK-MEL-5 18.1 µM | HOP-92 14.9 µM | SN12C 19.5 µM | HL-60 33.4 µM | HCC 2998 18.8 µM | OVCAR-4 19.5 µM | Malme-3M 17.5 µM | NCI/ADR-RES 18.2 µM | HOP-62 32.6 µM | MOLT-4 32.1 µM | MDA-N 20.4 µM | SK-MEL-28 19.6 µM | NCI-H522 14.9 µM | SW-620 23.7 µM | RPMI-8226 23.8 µM | NCI-H226 18 µM | HCT-116 14.9 µM

COC(=O)/C(C#N)=C(\Nc1ccccc1)N1CCCCC1
> 100 µM: HCT-15
inactive: OVCAR-8 > 100 µM | T47D > 100 µM | MCF7 > 100 µM | SF-295 > 100 µM | RXF 393 > 100 µM | ACHN > 100 µM | COLO 205 > 100 µM | U-251 > 100 µM | NCI-H460 > 100 µM | OVCAR-5 > 100 µM | PC-3 > 100 µM | K562 > 100 µM | MDA-MB-231 > 100 µM | LOX IMVI > 100 µM | SF-539 > 100 µM | SNB-19 > 100 µM | Hs-578T > 100 µM | 786-0 > 100 µM | DU-145 > 100 µM | A498 > 100 µM | NCI-H23 > 100 µM | TK-10 > 100 µM | EKVX > 100 µM | A549 > 100 µM | SF-268 > 100 µM | SK-OV-3 > 100 µM | SR > 100 µM | IGROV-1 > 100 µM | CAKI-1 > 100 µM | UO-31 > 100 µM | HT-29 > 100 µM | SNB-75 > 100 µM | UACC-257 > 100 µM | SK-MEL-2 > 100 µM | MDA-MB-435 > 100 µM | M14 > 100 µM | BT-549 > 100 µM | SK-MEL-5 > 100 µM | HOP-92 > 100 µM | SN12C > 100 µM | HL-60 > 100 µM | HCC 2998 > 100 µM | OVCAR-4 > 100 µM | Malme-3M > 100 µM | NCI/ADR-RES > 100 µM | HOP-62 > 100 µM | MOLT-4 > 100 µM | MDA-N > 100 µM | OVCAR-3 > 100 µM | SK-MEL-28 > 100 µM | NCI-H522 > 100 µM | SW-620 > 100 µM | RPMI-8226 > 100 µM | NCI-H226 > 100 µM | HCT-116 > 100 µM
